Reference: US8933233B2, “1,3,4-oxadiazole and 1,3,4-thiadiazole β-lactamase inhibitors” (priority 2012, dated 2015)
Counter-ions that a name gives are not always drawn.

How the values were obtained:
[1] = system: bacterial strains that express the class D cephalosporinase OXA-15; test: Synergy MIC / standard BLI potentiation MIC assay, strains expressing OXA-15; format: cell-based, E. coli; conditions: in presence of a β-lactam; comparator Avibactam (CCC)
Procedure, shortened: (§1)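 Broth microdilution in CAMHB per CLSI M07-A9, ~10^5 CFU/mL inoculum, 18–20 h at 37 °C with aeration; engineered E. coli kept with 25 μg/mL tetracycline. β-lactam 2-fold from 128 to 0.13 μg/mL with BLI fixed at 4 μg/mL, or BLI serially diluted with β-lactam fixed; MIC is lowest concentration without visible turbidity.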

[2] = system: bacterial strains that express KPC β-lactamases; test: Synergy MIC / standard BLI potentiation MIC assay, strains expressing KPC β-lactamases; format: cell-based, isogenic E. coli and clinical isolates; conditions: more active for at least one KPC strain and/or better spectrum; comparator Avibactam
Procedure, shortened: as §1

Structure (SMILES) | activity against bacterial strains that express OXA-15, compared with Avibactam [1] | activity and/or spectrum of activity against bacterial strains that express KPC β-lactamases, compared with Avibactam [2]
N=C(N)NC[C@@H](O)c1nnc([C@@H]2CC[C@@H]3CN2C(=O)N3OS(=O)(=O)O)o1 [Compound 731, (2S,5R)-2-(5-((R)-2-guanidino-1-hydroxyethyl)-1,3,4-oxadiazol-2-yl)-7-oxo-1,6-diazabicyclo[3.2.1]octan-6-yl hydrogen sulfate] | more active than Avibactam | more active than Avibactam
O=C1N2C[C@@H](CC[C@H]2c2nnc(COC3CNC3)o2)N1OS(=O)(=O)O [Compound 744, (2S,5R)-2-(5-((azetidin-3-yloxy)methyl)-1,3,4-oxadiazol-2-yl)-7-oxo-1,6-diazabicyclo[3.2.1]octan-6-yl hydrogen sulfate] | more active than Avibactam | more active than Avibactam
O=C1N2C[C@@H](CC[C@H]2c2nnc(C3CCNCC3)o2)N1OS(=O)(=O)O [Compound 711, (2S,5R)-7-oxo-2-(5-(piperidin-4-yl)-1,3,4-oxadiazol-2-yl)-1,6-diazabicyclo[3.2.1]octan-6-yl hydrogen sulfate] | more active than Avibactam | more active than Avibactam
O=C1N2C[C@@H](CC[C@H]2c2nnc([C@H]3CNCCN3)o2)N1OS(=O)(=O)O [Compound 779, (2S,5R)-7-oxo-2-(5-((R)-piperazin-2-yl)-1,3,4-oxadiazol-2-yl)-1,6-diazabicyclo[3.2.1]octan-6-yl hydrogen sulfate] | more active than Avibactam | more active than Avibactam
O=C1N2C[C@@H](CC[C@H]2c2nnc(C3CC4(CNC4)C3)o2)N1OS(=O)(=O)O [Compound 750, (2S,5R)-2-(5-(2-azaspiro[3.3]heptan-6-yl)-1,3,4-oxadiazol-2-yl)-7-oxo-1,6-diazabicyclo[3.2.1]octan-6-yl hydrogen sulfate] | more active than Avibactam | more active than Avibactam
O=C1N2C[C@@H](CC[C@H]2c2nnc(C3CNC3)o2)N1OS(=O)(=O)O [Compound 708, (2S,5R)-2-(5-(azetidin-3-yl)-1,3,4-oxadiazol-2-yl)-7-oxo-1,6-diazabicyclo[3.2.1]octan-6-yl hydrogen sulfate] | more active than Avibactam | more active than Avibactam
N=C(N)N1CC(Cc2nnc([C@@H]3CC[C@@H]4CN3C(=O)N4OS(=O)(=O)O)o2)C1 [Compound 741, (2S,5R)-2-(5-((1-carbamimidoylazetidin-3-yl)methyl)-1,3,4-oxadiazol-2-yl)-7-oxo-1,6-diazabicyclo[3.2.1]octan-6-yl hydrogen sulfate] | more active than Avibactam | more active than Avibactam
N[C@H]1CN[C@@H](c2nnc([C@@H]3CC[C@@H]4CN3C(=O)N4OS(=O)(=O)O)o2)C1 [Compound 761, (2S,5R)-2-(5-((2R,4R)-4-aminopyrrolidin-2-yl)-1,3,4-oxadiazol-2-yl)-7-oxo-1,6-diazabicyclo[3.2.1]octan-6-yl hydrogen sulfate] | more active than Avibactam | more active than Avibactam
CNCCc1nnc([C@@H]2CC[C@@H]3CN2C(=O)N3OS(=O)(=O)O)o1 [Compound 722, (2S,5R)-2-(5-(2-(methylamino)ethyl)-1,3,4-oxadiazol-2-yl)-7-oxo-1,6-diazabicyclo[3.2.1]octan-6-yl hydrogen sulfate] | more active than Avibactam | more active than Avibactam
N=C(N)NCC1(c2nnc([C@@H]3CC[C@@H]4CN3C(=O)N4OS(=O)(=O)O)o2)CC1 [Compound 723, (2S,5R)-2-(5-(1-(guanidinomethyl)cyclopropyl)-1,3,4-oxadiazol-2-yl)-7-oxo-1,6-diazabicyclo[3.2.1]octan-6-yl hydrogen sulfate] | more active than Avibactam | more active than Avibactam
O=C1N2C[C@@H](CC[C@H]2c2nnc(CCCNC3CCNCC3)o2)N1OS(=O)(=O)O [Compound 771, (2S,5R)-7-oxo-2-(5-(3-(piperidin-4-ylamino)propyl)-1,3,4-oxadiazol-2-yl)-1,6-diazabicyclo[3.2.1]octan-6-yl hydrogen sulfate] | more active than Avibactam | more active than Avibactam
C[n+]1ccc(-c2nnc([C@@H]3CC[C@@H]4CN3C(=O)N4OS(=O)(=O)[O-])o2)cc1 [Compound 782, (2S,5R)-2-(5-(1-methylpyridin-1-ium-4-yl)-1,3,4-oxadiazol-2-yl)-7-oxo-1,6-diazabicyclo[3.2.1]octan-6-yl sulfate] | more active than Avibactam | more active than Avibactam
NC(=O)c1nnc([C@@H]2CC[C@@H]3CN2C(=O)N3OS(=O)(=O)O)o1 [Compound 706, (2S,5R)-2-(5-carbamoyl-1,3,4-oxadiazol-2-yl)-7-oxo-1,6-diaza-bicyclo[3.2.1]octan-6-yl hydrogen sulfate] | more active than Avibactam | more active than Avibactam
O=C1N2C[C@@H](CC[C@H]2c2nnc([C@H]3CCNC3)o2)N1OS(=O)(=O)O [Compound 758, (2S,5R)-7-oxo-2-(5-((S)-pyrrolidin-3-yl)-1,3,4-oxadiazol-2-yl)-1,6-diazabicyclo[3.2.1]octan-6-yl hydrogen sulfate] | more active than Avibactam | more active than Avibactam
N=C(N)N[C@H]1C[C@@H](c2nnc([C@@H]3CC[C@@H]4CN3C(=O)N4OS(=O)(=O)O)s2)C1 [Compound 784, (2S,5R)-2-(5-((1s,3R)-3-guanidinocyclobutyl)-1,3,4-thiadiazol-2-yl)-7-oxo-1,6-diazabicyclo[3.2.1]octan-6-yl hydrogen sulfate] | more active than Avibactam | more active than Avibactam
O=C1N2C[C@@H](CC[C@H]2c2nnc(CCNC3CNC3)o2)N1OS(=O)(=O)O [Compound 745, (2S,5R)-2-(5-(2-(azetidin-3-ylamino)ethyl)-1,3,4-oxadiazol-2-yl)-7-oxo-1,6-diazabicyclo[3.2.1]octan-6-yl hydrogen sulfate] | more active than Avibactam | more active than Avibactam
NCc1nnc([C@@H]2CC[C@@H]3CN2C(=O)N3OS(=O)(=O)O)o1 [Compound 702, (2S,5R)-2-(5-(aminomethyl)-1,3,4-oxadiazol-2-yl)-7-oxo-1,6-diazabicyclo[3.2.1]octan-6-yl hydrogen sulfate] | more active than Avibactam | more active than Avibactam
O=C1N2C[C@@H](CC[C@H]2c2nnc(CCCC3CNC3)o2)N1OS(=O)(=O)O [Compound 743, (2S,5R)-2-(5-(3-(azetidin-3-yl)propyl)-1,3,4-oxadiazol-2-yl)-7-oxo-1,6-diazabicyclo[3.2.1]octan-6-yl hydrogen sulfate] | more active than Avibactam | more active than Avibactam
N[C@H]1CN[C@H](c2nnc([C@@H]3CC[C@@H]4CN3C(=O)N4OS(=O)(=O)O)o2)C1 [Compound 762, (2S,5R)-2-(5-((2S,4R)-4-aminopyrrolidin-2-yl)-1,3,4-oxadiazol-2-yl)-7-oxo-1,6-diazabicyclo[3.2.1]octan-6-yl hydrogen sulfate] | more active than Avibactam | more active than Avibactam
N=C(N)NCCc1nnc([C@@H]2CC[C@@H]3CN2C(=O)N3OS(=O)(=O)O)s1 [Compound 794, (2S,5R)-2-(5-(2-guanidinoethyl)-1,3,4-thiadiazol-2-yl)-7-oxo-1,6-diazabicyclo[3.2.1]octan-6-yl hydrogen sulfate] | more active than Avibactam | more active than Avibactam
N[C@H]1CC[C@@H](c2nnc([C@@H]3CC[C@@H]4CN3C(=O)N4OS(=O)(=O)O)o2)C1 [Compound 768, (2S,5R)-2-(5-((1R,3S)-3-aminocyclopentyl)-1,3,4-oxadiazol-2-yl)-7-oxo-1,6-diazabicyclo[3.2.1]octan-6-yl hydrogen sulfate] | more active than Avibactam | more active than Avibactam
